Data: patent US12134623B1, “2,16-dioxapentacyclo[7.7.5.01,21.03,8.010,15]henicosa3(8),10,12,14-tetraene-7,20-dione as an antimicrobial compound” (KING FAISAL UNIVERSITY, priority 2023, dated 2024)

Columns and labels:
Assay type in all cases: cell-based
Settings in all cases: after 10, 20, 40 and 60 minutes at all dilutions 1:100, 1:200, 1:400, 1:800
Staphylococcus aureus = assay: Antimicrobial activity by agar dilution, Staphylococcus aureus
Method: (§1) The antibacterial properties of the synthesized compound (of 2,16-dioxapentacyclo[7.7.5.0^1,21.0^3,8.0^10,15]henicosa3(8), 10,12,14-tetraene-7,20-dione) were studied by the method of agar dilution. Test solutions of each compound was prepared in concentration of 1% using dimethylformamide as a solvent. Then they were diluted in physiological solution to obtain the final experimental dilutions of 1:100, 1:200, 1:400, and 1:800. The effect of these substances were compared with furacillin in a controllable study. The testing microbes used were gram positive bacteria Staphylococcus aureus, gram negative bacteria Pseudomonas aeruginosa, Escherichia coli, and Candida albicans fungus. The experiments used for this survey were meat-pentonlu agar (EPA) for cultivation of bacteria and Saburo environment for fungi. Each experiment used 1 mL of test solution on each plate for 500 minutes. Two drops of emulsified with microbes feel were added. All experimental samples were taken from the agar after 10, 20, 40, 60 minutes in the environment on the basis of Patrk planted. Bacteria were cultivated at a temperature of 37° C. for 1 day and the mushroom was kept in a thermostat for […] at a temperature of 28° C. Then results were checked. Those of control and the antimicrobial activity for the synthesized compounds are listed in Table 1 below, with furacillin serving as a reference.

Escherichia coli = assay: Antimicrobial activity by agar dilution, Escherichia coli
Method: as §1

Pseudomonas aeruginosa = assay: Antimicrobial activity by agar dilution, Pseudomonas aeruginosa
Method: as §1

Candida albicans = assay: Antimicrobial (antifungal) activity by agar dilution, Candida albicans
Method: as §1

Measured: inhibition activity compared with the inhibition activity of Furacilin

O=C1CCCC2=C1C1c3ccccc3OC3(CCCC(=O)C13)O2 (stereo not shown) [2,16-dioxapentacyclo[7.7.5.0^1,21.0^3,8.0^10,15]henicosa3(8), 10,12,14-tetraene-7,20-dione]
higher inhibition activity: all assays above
